{"source": "patent US9926315B2", "about": "“Triazolopyridine compounds and methods for the treatment of cystic fibrosis” (Flatley Discovery Lab, LLC, priority 2014, dated 2018)", "target": "T1, human ΔF508-CFTR (Homo sapiens, UniProt P13569, DEL508-508)", "T1 construct": "expressed in transfected cells", "T1 sequence (P13569 with tags, fused parts or gaps DEL508-508)": "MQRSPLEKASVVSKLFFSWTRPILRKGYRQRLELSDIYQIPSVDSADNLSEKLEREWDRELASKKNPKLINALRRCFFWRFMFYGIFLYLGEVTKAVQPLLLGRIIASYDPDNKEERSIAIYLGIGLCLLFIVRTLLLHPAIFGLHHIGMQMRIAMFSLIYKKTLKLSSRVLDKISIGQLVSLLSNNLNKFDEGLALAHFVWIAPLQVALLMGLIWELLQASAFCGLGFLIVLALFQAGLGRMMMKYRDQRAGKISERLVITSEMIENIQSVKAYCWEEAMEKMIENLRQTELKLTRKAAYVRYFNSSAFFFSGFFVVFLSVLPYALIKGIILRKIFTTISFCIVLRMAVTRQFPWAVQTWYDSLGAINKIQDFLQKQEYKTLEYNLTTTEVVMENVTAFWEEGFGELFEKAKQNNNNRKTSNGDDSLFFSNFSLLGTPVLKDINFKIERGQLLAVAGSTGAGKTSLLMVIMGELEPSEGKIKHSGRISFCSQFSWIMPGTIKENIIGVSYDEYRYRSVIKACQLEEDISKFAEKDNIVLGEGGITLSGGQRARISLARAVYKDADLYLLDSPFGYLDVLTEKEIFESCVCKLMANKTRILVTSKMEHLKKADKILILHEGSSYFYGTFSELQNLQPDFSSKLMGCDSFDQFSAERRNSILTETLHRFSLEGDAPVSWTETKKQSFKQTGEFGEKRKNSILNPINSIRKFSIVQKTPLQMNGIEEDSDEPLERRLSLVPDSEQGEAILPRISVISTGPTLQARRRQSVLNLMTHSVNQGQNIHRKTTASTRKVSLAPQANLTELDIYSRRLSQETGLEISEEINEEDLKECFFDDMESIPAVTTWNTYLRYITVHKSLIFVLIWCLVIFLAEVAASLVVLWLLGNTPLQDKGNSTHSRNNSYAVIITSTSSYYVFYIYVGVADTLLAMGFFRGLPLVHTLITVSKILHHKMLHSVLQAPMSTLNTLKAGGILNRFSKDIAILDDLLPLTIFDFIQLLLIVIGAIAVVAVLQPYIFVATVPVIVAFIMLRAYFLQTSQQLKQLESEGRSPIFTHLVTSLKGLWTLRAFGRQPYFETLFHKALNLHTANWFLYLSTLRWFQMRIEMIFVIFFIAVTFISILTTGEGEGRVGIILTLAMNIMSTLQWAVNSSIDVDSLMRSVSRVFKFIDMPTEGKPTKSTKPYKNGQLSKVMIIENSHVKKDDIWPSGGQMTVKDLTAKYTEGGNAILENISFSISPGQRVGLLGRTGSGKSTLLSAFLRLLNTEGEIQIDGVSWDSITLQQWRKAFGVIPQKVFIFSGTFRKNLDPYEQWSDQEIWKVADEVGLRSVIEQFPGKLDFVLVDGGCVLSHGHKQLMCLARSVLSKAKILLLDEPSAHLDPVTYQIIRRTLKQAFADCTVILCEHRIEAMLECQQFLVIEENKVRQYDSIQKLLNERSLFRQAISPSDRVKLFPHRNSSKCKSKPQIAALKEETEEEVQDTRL", "test": "CFTR-YFP High Throughput Assay (HTS YFP flux assay, corrector / potentiator protocols)", "assay_type": "cell-based", "details": "FRT cells stably expressing human ΔF508-CFTR and YFP-H148Q/I152L", "description": "Assays for Detecting and Measuring the Effect of Compounds on dF508-CFTR Channels CFRT-YFP High Throughput Assay: Corrector Assay:\nThe following protocol is designed to selectively screen small molecule compounds for F508del CFTR corrector activities in the HTS YFP flux assay. In this protocol, the cells are incubated with testing compounds for 24 hours, washed with PBS, stimulated with forskolin and a standard potentiator, and read on a 384-well HTS plate reader, such as the Hamamatsu FDDD-6000.\n(§1) YFP fluorescence intensity is acquired at high speed before and after iodide buffer is injected to the assay cells. Iodide enters the cells via active CFTR channels in the plasma membrane, and quenches the YFP fluorescence. The rate of fluorescence quenching is proportionally related to the total CFTR activities in the cell membrane. dF508-CFTR corrector accelerates YFP quenching by increasing the number of CFTR molecules in the testing cell plasma membrane.\nThis method was initially developed for bench top plate readers (Galietta, 2001), and was adapted to the HTS format (Sui, 2010).\nFisher Rat Thyroid (FRT) cells stably expressing both human ΔF508-CFTR and a halide-sensitive yellow fluorescent protein (YFP-H148Q/I152L 25, 22) (Galietta, 2001) were cultured on plastic surface in Coon's modified Ham's F12 medium supplemented with FBS 10%, L-glutamine 2 mM, penicillin 100 U/mL, and streptomycin 100 μg/mL. G418 (0.75-1.0 mg/mL) and zeocin (3.2 μg/mL) were used for selection of FRT cells expressing ΔF508-CFTR and YFP. For primary screening, FRT cells were plated into 384-well black wall, transparent bottom microtiter plates (Costar; Corning Inc.) at a cell density of 20, 000-40, 000 per well. Test compound was applied to the cells at varying concentrations ranging from 2 nM-[…] in either a 2-fold or 3-fold dilution series. Cells were incubated in a cell culture incubator at 37° C. with 5% CO2 for 24-26 h. Assay plates were washed with DPBS media (Thermo, cat#SH30028.02) to remove unbound cells and compound. Stimulation media (25 μL) containing 20 μM Forskolin & 30 μM P3 [6-(Ethyl-phenyl-sulfonyl)-4-oxo-1, 4-dihydro-quinoline-3-carboxylic acid 2-methoxy-benzylamide] in Hams F-12 coon's modified media was added to the plate wells and incubated at room temperature for 60-120 min. 25 μL of HEPES-PBS-I buffer (10 mM HEPES, 1 mM MgCl2, 3 mM KCl, 1 mM CaCl2, 150 mM NaI) was then added and fluorescence quench curves (Excitation 500 nm/Emission 540 nm; exposure 136 ms) were immediately recorded on an FDSS-6000 plate reader (Hamamatsu). Quench rates were derived from least squares fitting of the data (Sui, 2010).\nThe following protocol is designed to selectively screen small molecule compounds for F508del CFTR potentiator activities in the HTS YFP flux assay. In this protocol, the cells are incubated at 27° C. for 24 hours with homogeneously boosted dF508-CFTR expression in the cell membrane by the low temperature, washed with PBS, stimulated with forskolin, and read on a 384-well HTS plate reader, such as the Hamamatsu […].\nas §1, with “dF508del-CFTR potentiators accelerate” for “dF508-CFTR corrector accelerates”, “increasing” for “increasing the number of”, “activities” for “molecules”\nFisher Rat Thyroid (FRT) cells stably expressing both human ΔF508-CFTR and a halide-sensitive yellow fluorescent protein (YFP-H148Q/I152L 25, 22) (Galietta, 2001) were cultured on plastic surface in Coon's modified Ham's F12 medium supplemented with FBS 10%, L-glutamine 2 mM, penicillin 100 U/mL, and streptomycin 100 μg/mL. G418 (0.75-1.0 mg/mL) and zeocin (3.2 μg/mL) were used for selection of FRT cells expressing ΔF508-CFTR and YFP. […]"}
{"smiles": "CCN(CC)S(=O)(=O)c1ccc2nnc(NCc3ccc(C)cc3)n2c1", "note": "[Example 9]", "values": [{"measurement": "EC50", "value": "< 1000", "unit": "nM"}, {"measurement": "Emax", "setting": "normalized to positive control, read-out: Emax (% Efficacy, EMax normalized to the positive control)", "value": "> 80", "unit": "%"}]}
